± gives the expanded uncertainty stated by the source.
Conditions: Liquid

CC(O)c1ccccc1 (centres undefined) [1-phenylethanol]
vapor or sublimation pressure (353.15 K): 0.76 ± 0.031 kPa
vapor or sublimation pressure (358.41 K): 1.033 ± 0.031 kPa
vapor or sublimation pressure (362.36 K): 1.296 ± 0.031 kPa
vapor or sublimation pressure (366.37 K): 1.613 ± 0.032 kPa
vapor or sublimation pressure (371.46 K): 2.112 ± 0.032 kPa
vapor or sublimation pressure (373.15 K): 2.301 ± 0.032 kPa
vapor or sublimation pressure (377.83 K): 2.909 ± 0.032 kPa
vapor or sublimation pressure (382.98 K): 3.728 ± 0.032 kPa
vapor or sublimation pressure (387.28 K): 4.557 ± 0.033 kPa
vapor or sublimation pressure (393.15 K): 5.934 ± 0.033 kPa
vapor or sublimation pressure (393.34 K): 5.985 ± 0.033 kPa
vapor or sublimation pressure (398.01 K): 7.325 ± 0.034 kPa

CCOCCO [2-ethoxyethan-1-ol]
vapor or sublimation pressure (333.15 K): 5.3 ± 0.042 kPa
vapor or sublimation pressure (343.15 K): 8.646 ± 0.044 kPa
vapor or sublimation pressure (353.15 K): 13.62 ± 0.046 kPa

CCCCOC=O [butyl methanoate]
vapor or sublimation pressure (313.16 K): 7.978 ± 0.034 kPa
vapor or sublimation pressure (318.33 K): 10.19 ± 0.035 kPa
vapor or sublimation pressure (323.32 K): 12.79 ± 0.036 kPa
vapor or sublimation pressure (328.57 K): 16.08 ± 0.037 kPa
vapor or sublimation pressure (333.14 K): 19.5 ± 0.039 kPa
vapor or sublimation pressure (333.15 K): 19.5 ± 0.039 kPa
vapor or sublimation pressure (343.14 K): 29.1 ± 0.044 kPa
vapor or sublimation pressure (343.15 K): 29.1 ± 0.044 kPa
vapor or sublimation pressure (353.14 K): 42.24 ± 0.051 kPa
vapor or sublimation pressure (353.15 K): 42.24 ± 0.051 kPa
vapor or sublimation pressure (358.67 K): 51.34 ± 0.056 kPa

Oc1ccccc1 [phenol]
vapor or sublimation pressure (353.15 K): 2.037 ± 0.041 kPa
vapor or sublimation pressure (373.15 K): 5.541 ± 0.042 kPa
vapor or sublimation pressure (393.15 K): 13.15 ± 0.045 kPa
